Read-outs that look alike come from different tables or passages of the source.
What was measured:
[1] = test system: human cardiomyocyte preparation; conditions: for concentration from which ACs were induced: human
[2] = test system: ex vivo human ventricular trabeculae preparation
[3] = test system: ex vivo human ventricular trabeculae preparation; test: ex vivo human ventricular trabeculae force of contraction
[4] = test system: human cardiomyocyte preparation; test: human cardiomyocyte contractility transients (system 20 validation with reference drugs); conditions: human cardiomyocytes

CC(C)NCC(O)c1ccc(NS(C)(=O)=O)cc1 (racemic) [sotalol, d,l-sotalol]
sarcomere shortening [1]: no effects
concentration from which ACs were induced [1]: 10 -fold the fETPC
TR90 [2]: concentration-dependent increase

COc1cc(N)c(Cl)cc1C(=O)NC1CCN(CCCOc2ccc(F)cc2)CC1OC (stereo not shown) [cisapride]
AC (after-contraction) incidence [1]: seen starting at the fETPC
sarcomere shortening [1]: inhibited

CC[C@H]1OC(=O)[C@H](C)[C@@H](O[C@H]2C[C@@](C)(OC)[C@@H](O)[C@H](C)O2)[C@H](C)[C@@H](O[C@@H]2O[C@H](C)C[C@H](N(C)C)[C@H]2O)[C@](C)(OC)C[C@@H](C)C(=O)[C@H](C)[C@@H](O)[C@]1(C)O [clarithromycin]
sarcomere shortening [1]: inhibited
concentration from which ACs were induced [1]: 10 -fold the fETPC

CN(CCOc1ccc(NS(C)(=O)=O)cc1)CCc1ccc(NS(C)(=O)=O)cc1 [dofetilide]
sarcomere shortening [1]: no effects
concentration from which ACs were induced [1]: 10 -fold the fETPC
MAC (maximum amplitude of force of contraction) ([3]; human ventricular trabeculae): no effects
TR90 ([3]; human ventricular trabeculae): concentration-dependent increase
AC incidence ([3]; human ventricular trabeculae, starting at the fETPC): observed starting at the fETPC

O=c1[nH]c2ccccc2n1CCCN1CCC(n2c(=O)[nH]c3cc(Cl)ccc32)CC1 [domperidone]
AC (after-contraction) incidence [1]: seen starting at the fETPC
sarcomere shortening [1]: inhibited

CC(C)NCC(O)c1ccc(O)c(O)c1 (stereo not shown) [isoproterenol]
AC incidence [1]: induced no AC
CE incidence [1]: no CE incidence
TR90 [1]: decreased
increase of MAC ([3]; human ventricular trabeculae, at 0.03 μM): 315%
FSF ([4]; positive inotropes): increased
maximum contraction velocity ([4]; positive inotropes): increased
maximum contraction velocity time ([4]; positive inotropes): increased
maximum relaxation velocity ([4]; positive inotropes): increased
maximum relaxation velocity time ([4]; positive inotropes): no effects
peak height ([4]; positive inotropes): increased
time to 10% peak ([4]; positive inotropes): decreased
time to 50% peak ([4]; positive inotropes): decreased
time to peak ([4]; positive inotropes): no effects
AC incidence [2]: did not induce any ACs
TR90 [2]: decrease

C[C@@H]1CC(=O)NN=C1c1ccc(NN=C(C#N)C#N)cc1 [levosimendan]
AC incidence ([4]; at 10-fold the fETPC): levosimendan did
CE incidence ([4]; positive inotropes): no CE incidence
FSF ([4]; positive inotropes): increased
TR90 ([4]; positive inotropes): no effect
maximum contraction velocity ([4]; positive inotropes): increased
maximum contraction velocity time ([4]; positive inotropes): no effect
maximum relaxation velocity ([4]; positive inotropes): increased
maximum relaxation velocity time ([4]; positive inotropes): no effects
peak height ([4]; positive inotropes): increased
time to 10% peak ([4]; positive inotropes): no effect
time to 50% peak ([4]; positive inotropes): no effect
time to peak ([4]; positive inotropes): no effects

Cc1cccc(C)c1OCC(C)N (stereo not shown) [mexiletine]
AC incidence [1]: induced no ACs
sarcomere shortening [1]: inhibited

C=C[C@H]1C[N@@]2CC[C@H]1C[C@@H]2[C@@H](O)c1ccnc2ccc(OC)cc12 [quinidine]
AC (after-contraction) incidence [1]: concentration-dependent increases
CE (contractility escape) incidence [1]: concentration-dependent increases
TR90 (time to 90% relaxation) [1]: prolongation

COc1ccccc1OCC(O)CN1CCN(CC(=O)Nc2c(C)cccc2C)CC1 (stereo not shown) [ranolazine]
AC incidence [1]: induced no ACs
sarcomere shortening [1]: inhibited

COc1ccc(CCN(C)CCCC(C#N)(c2ccc(OC)c(OC)c2)C(C)C)cc1OC (stereo not shown) [verapamil]
IC50 ([3]; Homo sapiens, read-out: IC50 for decrease of MAC): 1.46 µM
AC incidence ([4]; up to 222-fold the fETPC): neither AC or CE incidence
CE incidence ([4]; up to 222-fold the fETPC): neither AC or CE incidence
TR90 ([4]; up to 222-fold the fETPC): no change

From patent US10794897B2, “System and methods for predicting drug-induced inotropic and pro-arrhythmia risk” (AnaBios Corporation, priority 2017, dated 2020)
